Assay results reported in US12225917B2 (priority 2017, dated 2025).

Tests used:
[1] = Tissue residue study by LC-MS/MS after in-feed administration (Example 7): muscle and liver; conditions: for Mean residue, Breast / Mean residue, Lower leg / Mean residue, Upper leg / Mean residue IRP001, Liver: n = 3
[2] = General safety in broilers reared to market weight by histology (Example 8); format: in vivo, broiler chickens
Excerpt: This study evaluates the safety of IRP001 chloride in broilers through examination of histology.
The objective of this study was to test the general safety of IRP001 chloride in broilers reared to market weight by examination of histology.
The experiment consisted of the following treatments (1 pen per treatment, Table 54).
Birds were kept in a pen having an area of 4×10=40 ft^2, with clean wood shavings as bedding with a thickness of approximately 4 inches. The pen had 5 feet high side walls with a bottom 1 ½ feet being of solid wood to prevent bird migration.
The temperature of the building was monitored. Environmental conditions during the trial (temperature) were appropriate (optimum) to the age of the animals. Illumination was provided by fluorescent bulbs placed above the pens. The diets were provided ad libitum in one tube-type feeder per pen. From D0 until D7, feed was also supplied on a tray placed on the litter of each pen. Water was provided ad libitum from one Plasson drinker per pen.
Standard floor pen management practices were used throughout the experiment. Animals and housing facilities were inspected twice daily, observing and recording the general health status, constant feed and water supply as well as temperature, removing all dead birds, and recognizing unexpected events. Birds found dead during the study were noted on the Daily Mortality Record, and were not replaced. Pen number, the date of mortality, sex, weight, and diagnosis were recorded.
Day of hatch male Cobb chicks were obtained and ten male broiler chicks were placed in each pen. Accountabilities of all test animals and any extra birds were recorded on animal disposition form. The birds were sexed at the hatchery. The breeder flock history and vaccination record at the hatchery were recorded. Bird weights by pen were recorded on D0 and 42.
All weights were by pen. Treatment Starter feed was fed from D0 to 21. On D21, non-consumed Starter was weighed by pen and discarded. Grower feed was issued and fed until D35. On D35, non-consumed Grower was weighed by pen and discarded. Finisher feed was fed until D42. On D42, non-consumed Finisher was weighed by pen and discarded.
On the day of study completion (D42), five birds from each pen were humanly euthanized and upper, mid and lower gut sections plus liver lobe were collected and stored in neutral buffered formalin. Theses samples were shipped for analysis.

Clostridium Perfringens = assay: microbe, parasite or virus in culture
[3] = system: Eimeria acervulina, E. maxima, and E. tenella; assay: Anticoccidial efficacy/sensitivity cage study (Example 9): lesion scores, oocysts per gram fecal material, coccidiosis mortality; conditions: for % Cocci Mort.: Day 0-20, infected
Clostridium Difficile = assay: In vitro MIC and MBC against Clostridium difficile (Example 6); format: cell-based; conditions: Clostridioides difficile, clinical isolate of C. difficile; test agent Berberine sulfate
E. coli causing scour = assay: In vitro MIC against pig disease strains incl. scour-inducing E. coli (Example 5); format: cell-based; conditions: Escherichia coli
[4] = Group 1, 0.03 g/kg IRP001 in feed (0-35 days), 0 days of washout
[5] = Group 2, 0.03 g/kg IRP001 in feed (0-35 days), 1 day of washout
[6] = Group 3, 0.03 g/kg IRP001 in feed (0-35 days), 2 days of washout
[7] = Group 4, 0.03 g/kg IRP001 in feed (0-35 days), 4 days of washout
[8] = Group 5, 0.03 g/kg IRP001 in feed (0-35 days), 7 days of washout
[9] = Group 6, 0.03 g/kg IRP001 in feed (0-28 days), 14 days of washout
[10] = Group 11, 0.3 g/kg IRP001 in feed (0-35 days), 7 days of washout
[11] = Group 12, 0.3 g/kg IRP001 in feed (0-28 days), 14 days of washout
[12] = IRP001 0.05 g/kg in feed, pen 2

COc1ccc2cc3[n+](cc2c1OC)CCc1cc2c(cc1-3)OCO2 [Berberine, berberine]
residue level in liver ([1]; 0.03 g/kg feed, before and after washout): below the limit of detection | mean residue level in muscle tissues ([1]; 0.03 g/kg feed, with or without washout): not detectable | residue level in muscle tissues (breast, lower leg, upper leg) ([1]; 0.3 g/kg feed, after 4 days washout, listed as IRP001): below the LLOD | residue level in liver ([1]; 0.3 g/kg feed, after a 14-day washout): below the limit of quantitation | Mean residue, Breast [1, 4]: <LLOD (outputs indicating values lower than 2 ng/g are considered to be within baseline noise, below the LLOD, and as such are not detectable) | Mean residue, Lower leg [1, 4]: <LLOD (outputs indicating values lower than 2 ng/g are considered to be within baseline noise, below the LLOD, and as such are not detectable) | Mean residue, Upper leg [1, 4]: <LLOD (outputs indicating values lower than 2 ng/g are considered to be within baseline noise, below the LLOD, and as such are not detectable) | Mean residue, Breast [1, 5]: <LLOD (outputs indicating values lower than 2 ng/g are considered to be within baseline noise, below the LLOD, and as such are not detectable) | Mean residue, Lower leg [1, 5]: <LLOD (outputs indicating values lower than 2 ng/g are considered to be within baseline noise, below the LLOD, and as such are not detectable) | Mean residue, Upper leg [1, 5]: <LLOD (outputs indicating values lower than 2 ng/g are considered to be within baseline noise, below the LLOD, and as such are not detectable) | Mean residue, Breast [1, 6]: <LLOD (outputs indicating values lower than 2 ng/g are considered to be within baseline noise, below the LLOD, and as such are not detectable) | Mean residue, Lower leg [1, 6]: <LLOD (outputs indicating values lower than 2 ng/g are considered to be within baseline noise, below the LLOD, and as such are not detectable) | Mean residue, Upper leg [1, 6]: <LLOD (outputs indicating values lower than 2 ng/g are considered to be within baseline noise, below the LLOD, and as such are not detectable) | Mean residue, Breast [1, 7]: <LLOD (outputs indicating values lower than 2 ng/g are considered to be within baseline noise, below the LLOD, and as such are not detectable) | Mean residue, Lower leg [1, 7]: <LLOD (outputs indicating values lower than 2 ng/g are considered to be within baseline noise, below the LLOD, and as such are not detectable) | Mean residue, Upper leg [1, 7]: <LLOD (outputs indicating values lower than 2 ng/g are considered to be within baseline noise, below the LLOD, and as such are not detectable) | Mean residue, Breast [1, 8]: <LLOD (outputs indicating values lower than 2 ng/g are considered to be within baseline noise, below the LLOD, and as such are not detectable) | Mean residue, Lower leg [1, 8]: <LLOD (outputs indicating values lower than 2 ng/g are considered to be within baseline noise, below the LLOD, and as such are not detectable) | Mean residue, Upper leg [1, 8]: <LLOD (outputs indicating values lower than 2 ng/g are considered to be within baseline noise, below the LLOD, and as such are not detectable) | Mean residue, Breast [1, 9]: <LLOD (outputs indicating values lower than 2 ng/g are considered to be within baseline noise, below the LLOD, and as such are not detectable) | Mean residue, Lower leg [1, 9]: <LLOD (outputs indicating values lower than 2 ng/g are considered to be within baseline noise, below the LLOD, and as such are not detectable) | Mean residue, Upper leg [1, 9]: <LLOD (outputs indicating values lower than 2 ng/g are considered to be within baseline noise, below the LLOD, and as such are not detectable) | Mean residue, Breast ([1]; Group 10, 0.3 g/kg IRP001 in feed (0-35 days), 4 days of washout): <LLOD (outputs indicating values lower than 2 ng/g are considered to be within baseline noise, below the LLOD, and as such are not detectable) | Mean residue, Breast [1, 10]: <LLOD (outputs indicating values lower than 2 ng/g are considered to be within baseline noise, below the LLOD, and as such are not detectable) | Mean residue, Lower leg [1, 10]: <LLOD (outputs indicating values lower than 2 ng/g are considered to be within baseline noise, below the LLOD, and as such are not detectable) | Mean residue, Upper leg [1, 10]: <LLOD (outputs indicating values lower than 2 ng/g are considered to be within baseline noise, below the LLOD, and as such are not detectable) | Mean residue, Breast [1, 11]: <LLOD (outputs indicating values lower than 2 ng/g are considered to be within baseline noise, below the LLOD, and as such are not detectable) | Mean residue, Lower leg [1, 11]: <LLOD (outputs indicating values lower than 2 ng/g are considered to be within baseline noise, below the LLOD, and as such are not detectable) | Mean residue, Upper leg [1, 11]: <LLOD (outputs indicating values lower than 2 ng/g are considered to be within baseline noise, below the LLOD, and as such are not detectable) | maximum acceptable residue (lower than one in a million risk of cancer) ([1]; estimated from typical lifetime consumption of chicken meat, breast or leg muscle tissue): 13 ng berberine per gram of chicken meat | Mean residue IRP001, Liver ([1]; 0.03 g/kg IRP001 in feed days 0-28, 14 days of washout, euthanasia day 42): <LLOD (outputs indicating values lower than 2 ng/g are considered to be within baseline noise, below the LLOD, and as such are not detectable) | Mean residue IRP001, Liver ([1]; 0.03 g/kg IRP001 in feed days 0-35, 0 days of washout, euthanasia day 35): <LLOD (outputs indicating values lower than 2 ng/g are considered to be within baseline noise, below the LLOD, and as such are not detectable) | Mean residue IRP001, Liver ([1]; 0.03 g/kg IRP001 in feed days 0-35, 1 day of washout, euthanasia day 36): <LLOD (outputs indicating values lower than 2 ng/g are considered to be within baseline noise, below the LLOD, and as such are not detectable) | Mean residue IRP001, Liver ([1]; 0.03 g/kg IRP001 in feed days 0-35, 2 days of washout, euthanasia day 37): <LLOD (outputs indicating values lower than 2 ng/g are considered to be within baseline noise, below the LLOD, and as such are not detectable) | Mean residue IRP001, Liver ([1]; 0.03 g/kg IRP001 in feed days 0-35, 4 days of washout, euthanasia day 39): <LLOD (outputs indicating values lower than 2 ng/g are considered to be within baseline noise, below the LLOD, and as such are not detectable) | Mean residue IRP001, Liver ([1]; 0.03 g/kg IRP001 in feed days 0-35, 7 days of washout, euthanasia day 42): <LLOD (outputs indicating values lower than 2 ng/g are considered to be within baseline noise, below the LLOD, and as such are not detectable) | adverse reaction or unanticipated event ([2]; 1 g berberine in 1 kg of commercial feed over 42 days): no adverse reaction or unanticipated event has been observed | Histology index: Coccidia [2, 12]: 3.2 | Histology index: Cumulative Pathology [2, 12]: 9.6 | Histology index: Enteritis [2, 12]: 6.4 | Histology index: Coccidia ([2]; IRP001 0.5 g/kg in feed, pen 3): 1.6 | Histology index: Cumulative Pathology ([2]; IRP001 0.5 g/kg in feed, pen 3): 7.6 | Histology index: Enteritis ([2]; IRP001 0.5 g/kg in feed, pen 3): 6.0 | Histology index: Coccidia ([2]; IRP001 1 g/kg in feed, pen 4): 1.0 | Histology index: Cumulative Pathology ([2]; IRP001 1 g/kg in feed, pen 4): 9.2 | Histology index: Enteritis ([2]; IRP001 1 g/kg in feed, pen 4): 8.2 | MBC (Clostridium Perfringens): 125 µg/mL | MIC (Clostridium Perfringens): 62.5 to 125 µg/mL | inhibition at 125 µg/mL (Clostridium Perfringens; read-out: killing of viable cells): 100% | % Cocci Mort. ([3]; IRP001 0.03 g/kg): 0.0b % | % Cocci Mort. ([3]; IRP001 0.10 g/kg): 0.0b % | Lesion Scores Average ([3]; IRP001 0.03 g/kg): 1.8b | Lesion Scores E. acer. ([3]; IRP001 0.03 g/kg): 2.3b | Lesion Scores E. maxima ([3]; IRP001 0.03 g/kg): 1.8bc | Lesion Scores E. tenella ([3]; IRP001 0.03 g/kg): 1.2ab | Lesion Scores Average ([3]; IRP001 0.10 g/kg): 1.5bc | Lesion Scores E. acer. ([3]; IRP001 0.10 g/kg): 2.1bc | Lesion Scores E. maxima ([3]; IRP001 0.10 g/kg): 1.5bcd | Lesion Scores E. tenella ([3]; IRP001 0.10 g/kg): 0.8bcd | MBC (Clostridium Difficile): 1000 µg/mL | MIC (E. coli causing scour): 125 µg/mL
